In ChEMBL document CHEMBL5728688, “Substituted pyridines as TYK2 inhibitors” (2021):

Molecular target: Non-receptor tyrosine-protein kinase TYK2 (Homo sapiens, UniProt P29597)
Experiment: TYK2 JH2 Domain Binding Assay: DiscoverX's KINOMEscan™ is a popular platform for kinase profiling, frequently used in academic and industry witnessed by publications, therefore we selected this platform as a primary cell-free screening assay to determine the relative binding potency and guide chemistry SAR.Developed by DiscoverX, KINOMEscan™ employs proprietary active-site dependent competition binding assays to determine how compounds bind to kinases. KINOMEscan™ is based on a competition binding assay that quantitatively measures the ability of a compound to compete with an immobilized, active site directed ligand. The assay is performed by combining three components: DNA-tagged kinase; immobilized ligand; and a test compound. […] The liganded beads were blocked with excess biotin and washed with blocking buffer (SeaBlock (Pierce), 1% BSA, 0.05% Tween 20, 1 mM DTT) to remove unbound ligand and to reduce non-specific binding. […] Test compounds were prepared as 111× stocks in 100% DMSO. All test compounds were shipped to DiscoverX in DMSO with concentration of 10 mM. […] Each compound was tested in duplicate. […] The compounds were then diluted directly into the assays such that the final concentration of DMSO was 0.9%. All reactions performed in polypropylene 384-well plate. Each was a final volume of 0.02 ml. […] […]

Non-receptor tyrosine-protein kinase TYK2, sequence (P29597 whole entry, the tested form may be a part): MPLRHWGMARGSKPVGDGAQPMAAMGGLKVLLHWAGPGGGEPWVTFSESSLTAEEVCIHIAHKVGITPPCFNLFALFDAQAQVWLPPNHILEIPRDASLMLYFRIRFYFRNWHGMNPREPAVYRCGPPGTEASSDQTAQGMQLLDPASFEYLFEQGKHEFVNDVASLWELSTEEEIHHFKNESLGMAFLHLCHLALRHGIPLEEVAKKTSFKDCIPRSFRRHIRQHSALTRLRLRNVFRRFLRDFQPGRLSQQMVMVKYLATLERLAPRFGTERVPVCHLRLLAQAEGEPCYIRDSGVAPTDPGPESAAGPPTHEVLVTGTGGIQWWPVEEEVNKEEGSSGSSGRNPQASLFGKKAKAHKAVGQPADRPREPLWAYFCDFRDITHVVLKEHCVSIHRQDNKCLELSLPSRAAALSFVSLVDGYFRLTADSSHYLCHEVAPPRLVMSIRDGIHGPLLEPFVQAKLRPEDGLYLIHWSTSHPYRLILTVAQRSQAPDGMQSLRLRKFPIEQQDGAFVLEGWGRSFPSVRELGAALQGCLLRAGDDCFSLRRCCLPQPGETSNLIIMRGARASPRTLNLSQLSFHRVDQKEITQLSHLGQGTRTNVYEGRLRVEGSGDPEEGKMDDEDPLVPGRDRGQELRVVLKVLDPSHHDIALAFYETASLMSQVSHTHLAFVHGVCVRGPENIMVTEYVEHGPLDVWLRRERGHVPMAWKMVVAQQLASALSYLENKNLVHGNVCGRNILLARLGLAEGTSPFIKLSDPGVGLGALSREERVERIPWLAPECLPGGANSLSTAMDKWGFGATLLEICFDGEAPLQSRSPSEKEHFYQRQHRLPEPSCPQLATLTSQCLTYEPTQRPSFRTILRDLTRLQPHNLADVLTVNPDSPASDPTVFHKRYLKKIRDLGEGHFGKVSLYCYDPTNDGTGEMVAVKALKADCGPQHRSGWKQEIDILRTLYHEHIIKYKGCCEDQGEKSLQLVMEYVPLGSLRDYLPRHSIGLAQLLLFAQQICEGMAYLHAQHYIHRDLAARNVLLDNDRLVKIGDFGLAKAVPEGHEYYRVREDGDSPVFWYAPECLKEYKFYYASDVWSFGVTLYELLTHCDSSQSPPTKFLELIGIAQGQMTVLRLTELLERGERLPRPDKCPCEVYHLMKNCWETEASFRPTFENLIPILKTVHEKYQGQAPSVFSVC

Kd: < 1 nM
SMILES: CNC(=O)c1nnc(N2CCC(C)(C)C2=O)cc1Nc1cccc(-c2ncn(C)n2)c1OC
